The source of these data is patent US9834558B2, “Substituted bridged urea analogs as sirtuin modulators” (GLAXOSMITHKLINE LLC, priority 2013, dated 2017).

This test deals with T1, SIRT1 (Homo sapiens, UniProt Q96EB6).
T1 sequence (Q96EB6 1-747): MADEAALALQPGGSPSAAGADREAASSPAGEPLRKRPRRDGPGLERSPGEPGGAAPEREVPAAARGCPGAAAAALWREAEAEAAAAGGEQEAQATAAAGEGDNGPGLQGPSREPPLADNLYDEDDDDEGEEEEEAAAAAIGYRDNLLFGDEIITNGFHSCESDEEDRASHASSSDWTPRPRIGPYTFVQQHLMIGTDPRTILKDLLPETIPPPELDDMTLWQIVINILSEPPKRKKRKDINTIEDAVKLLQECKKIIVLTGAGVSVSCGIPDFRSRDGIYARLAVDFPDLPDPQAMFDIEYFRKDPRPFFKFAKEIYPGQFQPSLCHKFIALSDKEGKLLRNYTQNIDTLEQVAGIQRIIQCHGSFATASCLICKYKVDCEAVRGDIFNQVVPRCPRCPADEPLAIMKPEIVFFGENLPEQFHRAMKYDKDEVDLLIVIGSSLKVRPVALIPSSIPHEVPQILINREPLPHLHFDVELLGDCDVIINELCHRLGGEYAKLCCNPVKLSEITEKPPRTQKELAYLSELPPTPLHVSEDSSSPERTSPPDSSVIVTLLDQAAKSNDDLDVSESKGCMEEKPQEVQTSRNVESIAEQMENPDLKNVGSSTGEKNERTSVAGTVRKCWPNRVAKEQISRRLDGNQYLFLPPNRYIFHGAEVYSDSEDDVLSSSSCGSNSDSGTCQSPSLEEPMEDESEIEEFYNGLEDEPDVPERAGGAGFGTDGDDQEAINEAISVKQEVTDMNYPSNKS
Kind of test: Trp mass spectrometry assay of SIRT1 activation. Type of test: biochemical. Particulars: Trp peptide assay; for TRP Activity (EC1.5): EC1.5 = concentration that results in 150% activation of SIRT1; for Emax: maximum activity relative to control (100%), read-out: TRP MAX RESP (percent maximum fold activation). Put shortly: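 N-terminal His-tagged human SIRT1 (10 nM, E. coli BL21(DE3)) with 0.5 μM Ac-RHKK(Ac)W-NH2 peptide and 120 μM βNAD+, 25 min at 25 °C in HEPES pH 7.5, formic acid stop. OAADPR or deacetylated peptide quantified by mass spectrometry; EC1.5 (50% activity increase over control) and Percent Maximum Activation reported.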

A value given as a limit tells only on which side of the number the result lay.

On to `Cc1cc(-c2ccc3c(n2)N(C(=O)N[C@@H](C)c2ccccn2)[C@H]2CCN3C2)ccn1` [(9S)-5-(2-methylpyridin-4-yl)-N-[(1S)-1-(pyridin-2-yl)ethyl]-1,6,8-triazatricyclo[7.2.1.0 {2,7}]dodeca-2,4,6-triene-8-carboxamide], for which the “TRP Activity (EC1.5)” value is given as “C (C (EC1.5>25 μM))” and the Emax was below 150%.

Turning to `Cc1cc(-c2ccc3c(n2)N(C(=O)Nc2cc4cn[nH]c4cn2)[C@H]2CCN3C2)ccn1` [(9S)-5-(2-methylpyridin-4-yl)-N-{1H-pyrazolo[3,4-c]pyridin-5-yl}-1,6,8-triazatricyclo[7.2.1.0 {2,7}]dodeca-2(7),3,5-triene-8-carboxamide], the “TRP Activity (EC1.5)” value is “A (A (EC1.5<1 μM))” and the Emax was above 150%.

For the compound `Cc1cc(-c2ccc3c(n2)N(C(=O)Nc2ccc4[nH]ncc4n2)[C@H]2CCN3C2)ccn1` [(9S)-5-(2-methylpyridin-4-yl)-N-{1H-pyrazolo[4,3-b]pyridin-5-yl}-1,6,8-triazatricyclo[7.2.1.0 {2,7}]dodeca-2(7),3,5-triene-8-carboxamide], the “TRP Activity (EC1.5)” value is listed as “A (A (EC1.5<1 μM))” and the Emax was above 150%.

`Cc1cc(-c2ccc3c(n2)N(C(=O)Nc2ncnc4[nH]nnc24)[C@H]2CCN3C2)ccn1` [(9S)-5-(2-methylpyridin-4-yl)-N-{3H-[1,2,3]triazolo[4,5-d]pyrimidin-7-yl}-1,6,8-triazatricyclo[7.2.1.0^{2,7}]dodeca-2,4,6-triene-8-carboxamide]: the “TRP Activity (EC1.5)” value is “C (C (EC1.5>25 μM))” and the Emax is below 150%.

As to `Cc1cc(-c2ccc3c(n2)N(C(=O)Nc2nccc4nccnc24)[C@H]2CCN3C2)ccn1` [(9S)-5-(2-methylpyridin-4-yl)-N-{pyrido[3,4-b]pyrazin-5-yl}-1,6,8-triazatricyclo[7.2.1.0 {2,7}]dodeca-2,4,6-triene-8-carboxamide], the “TRP Activity (EC1.5)” value is given as “B (B (EC1.5 1-25 μM))” and the Emax was above 150%.

As for `Cc1ncc(-c2ccc3c(n2)N(C(=O)Nc2cnccn2)[C@H]2CCN3C2)cn1` [(9S)-5-(2-methylpyrimidin-5-yl)-N-(pyrazin-2-yl)-1,6,8-triazatricyclo[7.2.1.0 {2,7}]dodeca-2(7),3,5-triene-8-carboxamide], the “TRP Activity (EC1.5)” value is on record as “B (B (EC1.5 1-25 μM))” and the Emax was above 150%.

Consider `Cc1cc(-c2ccc3c(n2)N(C(=O)Nc2cnccn2)[C@H]2CCN3C2)[nH]n1` [(9S)-5-(3-methyl-1H-pyrazol-5-yl)-N-(pyrazin-2-yl)-1,6,8-triazatricyclo[7.2.1.0^{2,7}]dodeca-2(7),3,5-triene-8-carboxamide], for which the “TRP Activity (EC1.5)” value was “B (B (EC1.5 1-25 μM))” and the Emax was above 150%.

Regarding `Cc1cc(C)c(-c2ccc3c(n2)N(C(=O)Nc2cnccn2)[C@H]2CCN3C2)cn1` [(9S)-5-(4,6-dimethylpyridin-3-yl)-9-N-(pyrazin-2-yl)-1,6,8-triazatricyclo[7.2.1.0 {2,7}]dodeca-2(7),3,5-triene-8-carboxamide], the “TRP Activity (EC1.5)” value is “C (C (EC1.5>25 μM))” and the Emax was below 150%.

For the compound `Cc1cc(C)c(-c2ccc3c(n2)N(C(=O)Nc2cccnc2)[C@H]2CCN3C2)cn1` [(9S)-5-(4,6-dimethylpyridin-3-yl)-N-(pyridin-3-yl)-1,6,8-triazatricyclo[7.2.1.0 {2,7}]dodeca-2(7),3,5-triene-8-carboxamide], the “TRP Activity (EC1.5)” value was “B (B (EC1.5 1-25 μM))” and the Emax is above 150%.

For `CN1CCN(c2ccc3c(n2)N(C(=O)Nc2cnccn2)[C@H]2CCN3C2)CC1` [(9S)-5-(4-methylpiperazin-1-yl)-N-(pyrazin-2-yl)-1,6,8-triazatricyclo[7.2.1.0 {2,7}]dodeca-2(7),3,5-triene-8-carboxamide], the “TRP Activity (EC1.5)” value was “B (B (EC1.5 1-25 μM))” and the Emax was above 150%.

Regarding `CC1CCN(c2ccc3c(n2)N(C(=O)Nc2cnccn2)[C@H]2CCN3C2)CC1` [(9S)-5-(4-methylpiperidin-1-yl)-N-(pyrazin-2-yl)-1,6,8-triazatricyclo[7.2.1.0 {2,7}]dodeca-2,4,6-triene-8-carboxamide], the “TRP Activity (EC1.5)” value is recorded as “B (B (EC1.5 1-25 μM))” and the Emax was above 150%.

Consider `Cc1cc(-c2ccc3c(n2)N(C(=O)Nc2cnccn2)[C@H]2CCN3C2)cnc1C` [(9S)-5-(5,6-dimethylpyridin-3-yl)-N-(pyrazin-2-yl)-1,6,8-triazatricyclo[7.2.1.0 {2,7}]dodeca-2(7),3,5-triene-8-carboxamide], for which the “TRP Activity (EC1.5)” value is on record as “A (A (EC1.5<1 μM))” and the Emax is above 150%.

On to `CCOc1ncc(-c2ccc3c(n2)N(C(=O)Nc2cnccn2)[C@H]2CCN3C2)cc1C#N` [(9S)-5-(5-cyano-6-ethoxypyridin-3-yl)-N-(pyrazin-2-yl)-1,6,8-triazatricyclo[7.2.1.0^{2,7}]dodeca-2(7),3,5-triene-8-carboxamide], for which the “TRP Activity (EC1.5)” value was “C (C (EC1.5>25 μM))” and the Emax was below 150%.

Take `Cc1cc(-c2ccc3c(n2)N(C(=O)Nc2cnccn2)[C@H]2CCN3C2)c(F)cn1` [(9S)-5-(5-fluoro-2-methylpyridin-4-yl)-N-(pyrazin-2-yl)-1,6,8-triazatricyclo[7.2.1.0 {2,7}]dodeca-2(7),3,5-triene-8-carboxamide]: the “TRP Activity (EC1.5)” value was “B (B (EC1.5 1-25 μM))” and the Emax was above 150%.

As to `Cc1ncc(-c2ccc3c(n2)N(C(=O)Nc2cnccn2)[C@H]2CCN3C2)cc1F` [(9S)-5-(5-fluoro-6-methylpyridin-3-yl)-N-(pyrazin-2-yl)-1,6,8-triazatricyclo[7.2.1.0 {2,7}]dodeca-2(7),3,5-triene-8-carboxamide], the “TRP Activity (EC1.5)” value is recorded as “B (B (EC1.5 1-25 μM))” and the Emax was above 150%.

As to `Cc1ncc(-c2ccc3c(n2)N(C(=O)Nc2cccnc2)[C@H]2CCN3C2)cc1F` [(9S)-5-(5-fluoro-6-methylpyridin-3-yl)-N-(pyridin-3-yl)-1,6,8-triazatricyclo[7.2.1.0 {2,7}]dodeca-2(7),3,5-triene-8-carboxamide], the “TRP Activity (EC1.5)” value is recorded as “B (B (EC1.5 1-25 μM))” and the Emax is above 150%.

`Cc1cncc(-c2ccc3c(n2)N(C(=O)Nc2cnccn2)[C@H]2CCN3C2)c1` [(9S)-5-(5-methylpyridin-3-yl)-N-(pyrazin-2-yl)-1,6,8-triazatricyclo[7.2.1.0 {2,7}]dodeca-2(7),3,5-triene-8-carboxamide]: the “TRP Activity (EC1.5)” value is listed as “B (B (EC1.5 1-25 μM))” and the Emax was above 150%.

Regarding `N#Cc1ncc(-c2ccc3c(n2)N(C(=O)Nc2cnccn2)[C@H]2CCN3C2)cc1F` [(9S)-5-(6-cyano-5-fluoropyridin-3-yl)-N-(pyrazin-2-yl)-1,6,8-triazatricyclo[7.2.1.0^2,7]dodeca-2(7),3,5-triene-8-carboxamide], the “TRP Activity (EC1.5)” value is reported as “C (C (EC1.5>25 μM))” and the Emax is below 150%.

On to `Cc1cc(-c2ccc3c(n2)N(C(=O)Nc2cnccn2)[C@H]2CCN3C2)cnc1C#N` [(9S)-5-(6-cyano-5-methylpyridin-3-yl)-N-(pyrazin-2-yl)-1,6,8-triazatricyclo[7.2.1.0 {2,7}]dodeca-2(7),3,5-triene-8-carboxamide], for which the “TRP Activity (EC1.5)” value is “B (B (EC1.5 1-25 μM))” and the Emax was above 150%.

In the case of `N#Cc1ccc(-c2ccc3c(n2)N(C(=O)Nc2cnccn2)[C@H]2CCN3C2)cn1` [(9S)-5-(6-cyanopyridin-3-yl)-N-(pyrazin-2-yl)-1,6,8-triazatricyclo[7.2.1.0 {2,7}]dodeca-2,4,6-triene-8-carboxamide], the “TRP Activity (EC1.5)” value is given as “C (C (EC1.5>25 μM))” and the Emax was below 150%.

Take `N#Cc1ccc(-c2ccc3c(n2)N(C(=O)Nc2cccnc2)[C@H]2CCN3C2)cn1` [(9S)-5-(6-cyanopyridin-3-yl)-N-(pyridin-3-yl)-1,6,8-triazatricyclo[7.2.1.0^2,7]dodeca-2,4,6-triene-8-carboxamide]: the “TRP Activity (EC1.5)” value was “B (B (EC1.5 1-25 μM))” and the Emax is above 150%.

Regarding `O=C(Nc1cnccn1)N1c2nc(-c3ccc(C4CC4)nc3)ccc2N2CC[C@H]1C2` [(9S)-5-(6-cyclopropylpyridin-3-yl)-N-(pyrazin-2-yl)-1,6,8-triazatricyclo[7.2.1.0 {2,7}]dodeca-2(7),3,5-triene-8-carboxamide], the “TRP Activity (EC1.5)” value is recorded as “B (B (EC1.5 1-25 μM))” and the Emax was above 150%.

With `CCc1ccc(-c2ccc3c(n2)N(C(=O)Nc2cnccn2)[C@H]2CCN3C2)cn1` [(9S)-5-(6-ethylpyridin-3-yl)-N-(pyrazin-2-yl)-1,6,8-triazatricyclo[7.2.1.0 {2,7}]dodeca-2(7),3,5-triene-8-carboxamide], the “TRP Activity (EC1.5)” value is given as “B (B (EC1.5 1-25 μM))” and the Emax was above 150%.
